Paper PMC9940855, “First-in-Class Dual Hybrid Carbonic Anhydrase Inhibitors and Transient Receptor Potential Vanilloid 1 Agonists Revert Oxaliplatin-Induced Neuropathy” (Journal of Medicinal Chemistry, 2023)
pEC50, pKi: −log10 of the molar value. Entries after “also recorded” stand apart in the source; their conditions may differ.

Tests used:
hCA IX = biological target: T1, hCA IX (Homo sapiens, UniProt Q16790); format: biochemical
T1 construct: made in house

hCA I = hCA I (Homo sapiens, UniProt P00915); conditions: read-out: KI hCA I; stopped-flow CO2 hydrase assay; mean from three different assays, errors ±5–10%
hCA XII = hCA XII (Homo sapiens, UniProt O43570); conditions: read-out: KI hCA XII; stopped-flow CO2 hydrase assay; mean from three different assays, errors ±5–10%
hCA VII = hCA VII (Homo sapiens, UniProt P43166); conditions: read-out: KI hCA VII; stopped-flow CO2 hydrase assay; mean from three different assays, errors ±5–10%
hCA IV = hCA IV (Homo sapiens, UniProt P22748); conditions: read-out: KI hCA IV; stopped-flow CO2 hydrase assay; mean from three different assays, errors ±5–10%
TRPV1 receptor = biological target: T2, TRPV1 receptor (Homo sapiens, UniProt Q8NER1); assay: TRPV1 assay, Fluo-4NW fluorescence in SH-SY5Y-TRPV1 cells; format: cell-based; conditions: read-out: EC50 on TRPV1 receptor activity (agonism)
T2 construct: expressed in transfected cells
Description: SH-SY5Y-TRPV1 cells (kindly provided by Johanna Lilja and Anna Forsby (University of Stockholm, Stockholm, Sweden))[40] were cultured in 96 wells. Upon 90% confluence had been reached, the cells were loaded with 5 μM Fluo-4NW for 1 h at 37 °C. […] Briefly, after measuring the basal fluorescence of the plate (four cycles), testing compounds were added to the plate, and the fluorescence was measured for additional 10 cycles; thereafter, 10 μM capsaicin was added with a microinjector and the fluorescence was monitored for an additional 10 cycles.

hCA II = hCA II (Homo sapiens, UniProt P00918); conditions: for pKi: read-out: KI hCA II, stopped-flow CO2 hydrase assay, mean from three different assays, errors ±5–10%
[1] = tested on: oxaliplatin-induced neuropathic pain (cold allodynia); assay: Cold plate test in mouse model of oxaliplatin-induced neuropathic pain; format: in vivo; conditions: p.o., acute; for pain-relieving effect (licking latency, Cold plate test), in words: 10–100 mg/kg; for time of peak pain-relieving effect post-administration: up to 100 mg/kg

Sequence of hCA XII (O43570 25-354): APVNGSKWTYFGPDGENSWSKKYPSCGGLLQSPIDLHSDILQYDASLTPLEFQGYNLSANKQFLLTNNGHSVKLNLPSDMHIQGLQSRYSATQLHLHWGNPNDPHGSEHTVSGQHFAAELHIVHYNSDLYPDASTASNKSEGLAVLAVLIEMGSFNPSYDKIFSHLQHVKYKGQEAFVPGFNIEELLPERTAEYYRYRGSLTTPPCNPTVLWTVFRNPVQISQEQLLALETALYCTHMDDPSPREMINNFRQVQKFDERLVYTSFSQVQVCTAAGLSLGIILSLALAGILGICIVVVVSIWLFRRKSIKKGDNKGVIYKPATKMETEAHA
Sequence of hCA VII (P43166 whole entry): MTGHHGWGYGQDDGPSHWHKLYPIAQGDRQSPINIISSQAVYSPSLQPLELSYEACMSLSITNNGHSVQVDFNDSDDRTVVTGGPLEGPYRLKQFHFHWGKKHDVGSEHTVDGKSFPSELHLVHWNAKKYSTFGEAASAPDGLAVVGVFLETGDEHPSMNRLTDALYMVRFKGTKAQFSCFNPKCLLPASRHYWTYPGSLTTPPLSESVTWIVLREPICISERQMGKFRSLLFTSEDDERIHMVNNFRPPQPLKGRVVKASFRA
Sequence of hCA I (P00915 whole entry): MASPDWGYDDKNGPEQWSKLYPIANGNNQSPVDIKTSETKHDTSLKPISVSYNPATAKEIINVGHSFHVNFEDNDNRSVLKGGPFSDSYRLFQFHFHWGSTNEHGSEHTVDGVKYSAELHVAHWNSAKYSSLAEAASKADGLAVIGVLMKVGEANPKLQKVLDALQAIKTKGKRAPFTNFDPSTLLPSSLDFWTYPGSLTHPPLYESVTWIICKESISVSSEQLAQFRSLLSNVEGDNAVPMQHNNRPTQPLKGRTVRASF
T2 sequence (Q8NER1 whole entry): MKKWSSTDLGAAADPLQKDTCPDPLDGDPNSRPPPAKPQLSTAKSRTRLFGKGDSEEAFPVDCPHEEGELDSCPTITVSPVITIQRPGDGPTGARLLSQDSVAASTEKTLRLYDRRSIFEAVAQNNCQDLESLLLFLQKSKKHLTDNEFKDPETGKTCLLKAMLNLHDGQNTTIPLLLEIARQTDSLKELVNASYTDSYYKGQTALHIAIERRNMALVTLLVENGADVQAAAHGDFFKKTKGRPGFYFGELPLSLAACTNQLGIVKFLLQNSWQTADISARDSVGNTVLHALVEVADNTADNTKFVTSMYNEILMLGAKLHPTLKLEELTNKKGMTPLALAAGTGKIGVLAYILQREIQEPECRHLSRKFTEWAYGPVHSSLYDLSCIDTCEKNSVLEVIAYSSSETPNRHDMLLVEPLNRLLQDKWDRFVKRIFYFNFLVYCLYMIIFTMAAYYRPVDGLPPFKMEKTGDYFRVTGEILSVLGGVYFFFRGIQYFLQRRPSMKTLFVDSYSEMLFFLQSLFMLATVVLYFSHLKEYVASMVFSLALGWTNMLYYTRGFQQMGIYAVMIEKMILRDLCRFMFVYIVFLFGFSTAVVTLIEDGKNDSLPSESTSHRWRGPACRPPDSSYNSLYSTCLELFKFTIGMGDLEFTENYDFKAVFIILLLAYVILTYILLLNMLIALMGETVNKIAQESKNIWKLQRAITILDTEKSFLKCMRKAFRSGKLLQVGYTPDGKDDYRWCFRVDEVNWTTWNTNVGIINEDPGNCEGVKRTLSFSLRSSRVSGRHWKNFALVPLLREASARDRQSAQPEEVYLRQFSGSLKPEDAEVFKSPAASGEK
Sequence of hCA IV (P22748 19-312): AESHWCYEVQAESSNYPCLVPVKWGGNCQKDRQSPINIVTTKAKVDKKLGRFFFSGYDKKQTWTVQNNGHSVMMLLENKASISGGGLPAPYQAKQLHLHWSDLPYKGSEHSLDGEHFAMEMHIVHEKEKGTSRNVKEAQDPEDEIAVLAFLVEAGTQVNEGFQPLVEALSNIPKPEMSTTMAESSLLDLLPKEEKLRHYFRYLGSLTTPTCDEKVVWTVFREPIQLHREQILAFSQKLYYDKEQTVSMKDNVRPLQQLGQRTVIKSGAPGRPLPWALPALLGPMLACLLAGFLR

Structure (SMILES) | pKi (hCA IX) | pKi (hCA I) | pKi (hCA XII) | pKi (hCA VII) | pKi (hCA IV) | pEC50 (TRPV1 receptor) | pKi (hCA II) | fold higher efficacy in inhibiting CA II over (R)-12a (hCA II; ratio of Ki) [fold] | pain-relieving effect (licking latency, Cold plate test), in words ([1]; day 15) | time of peak pain-relieving effect post-administration ([1]; Cold plate test) [min] | pain-relieving effect (licking latency, Cold plate test), in words ([1]; day 15, listed as (R)-43a) | time at which the effect was suppressed ([1]; Cold plate test) [min]
COc1ccccc1NC(=O)N[C@@H]1CCN(c2ccc(S(N)(=O)=O)cn2)C1 [18a, (R)-6-(3-(3-(2-Methoxyphenyl)ureido)pyrrolidin-1-yl)pyridine-3-sulfonamide] | 7.44 | 7.13 | 7.14 | 7.16 | 5.29 | < 4.00 | 6.54 | – | – | – | – | –
NS(=O)(=O)c1ccc(N2CC[C@@H](NC(=S)Nc3ccccc3F)C2)nc1 [21a, (R)-6-(3-(3-(2-Fluorophenyl)thioureido)pyrrolidin-1-yl)pyridine-3-sulfonamide] | 6.42 | 7.50 | 8.08 | – | 5.51 | < 4.00 | 7.83 | – | – | – | – | –
NS(=O)(=O)c1ccc(NC(=S)N[C@@H]2CCN(c3cccc([N+](=O)[O-])n3)C2)cc1 [37a, (R)-4-(3-(1-(6-Nitropyridin-2-yl)pyrrolidin-3-yl)thioureido)benzenesulfonamide] | 7.77 | 7.13 | 6.39 | 6.76 | 6.33 | 5.10 | 8.17 | 10.4 | more potent and effective than (R)-12a | 30 | – | –
NS(=O)(=O)c1cccc(NC(=S)N[C@@H]2CCN(c3cccc([N+](=O)[O-])n3)C2)c1 [38a, (R)-3-(3-(1-(6-Nitropyridin-2-yl)pyrrolidin-3-yl)thioureido)benzenesulfonamide] | 6.79 | 7.11 | 6.62 | 7.08 | 6.62 | 4.35 | 8.07 | – | – | – | – | –

Second part, led by results:

pKi (hCA IX) | pKi (hCA I) | pKi (hCA XII) | pKi (hCA VII) | pKi (hCA IV) | pEC50 (TRPV1 receptor) | pKi (hCA II) | fold higher efficacy in inhibiting CA II over (R)-12a (hCA II; ratio of Ki) [fold] | Structure (SMILES) | pain-relieving effect (licking latency, Cold plate test), in words ([1]; day 15) | time of peak pain-relieving effect post-administration ([1]; Cold plate test) [min] | pain-relieving effect (licking latency, Cold plate test), in words ([1]; day 15, listed as (R)-43a) | time at which the effect was suppressed ([1]; Cold plate test) [min]
6.72 | 7.14 | 8.17 | 8.03 | 5.45 | < 4.00 | 7.30 | – | NS(=O)(=O)c1ccc(N2CC[C@@H](NC(=O)Nc3ccc4c(c3)OCCO4)C2)nc1 [15a, (R)-6-(3-(3-(2,3-Dihydrobenzo[b][1,4]dioxin-6-yl)ureido)pyrrolidin-1-yl)pyridine-3-sulfonamide] | – | – | – | –
7.03 | 7.17 | 7.08 | 6.79 | 5.64 | < 4.00 | 8.12 | – | NS(=O)(=O)c1ccc(NC(=O)N[C@@H]2CCN(c3cccc([N+](=O)[O-])n3)C2)cc1 [43a, (R)-4-(3-(1-(6-Nitropyridin-2-yl)pyrrolidin-3-yl)ureido)benzenesulfonamide] | – | 45 | dose-dependent effectiveness; also recorded: moderate and shorter relieving outcomes | 75
